Experimental data as given in patent publication EP0084756A1, “Trisubstituted oxaza compounds” (CIBA-GEIGY AG, priority 1982, dated 1983).
≈ marks a conversion by molar mass, not a printed value.

System: mit Crotonöl induzierten Rattenohroedems
Assay: Croton oil-induced rat ear oedema, method of Tonelli and Thibault, local application
Assay type: in vivo, Normalratte
Conditions: inhibition of croton oil-induced rat ear oedema in the normal rat
Method: Diese Eigenschaft lässt sich beispielsweise nach der von G. Tonelli, L. Thibault, Endocrinology 77, 625 (1965) entwickelten Methode durch Hemmung des mit Crotonöl induzierten Rattenohroedems bei der Normalratte im Dosisbereich von etwa 1 bis etwa 100 mg/ml nachweisen.

## CCOC(=O)Cc1nc(-c2ccccc2)c(-c2cccnc2)[nH]1 [2-[4-Phenyl-5-(3-pyridyl)-imidazol-2-yl]-essigsäureethylester]
  ED50-Wert: 17 mg/mL (≈ 55.3 mM)
